GI50 and TGI data for ten compounds are collected here from PubChem BioAssay (NCI).

Among the test systems are SF-295 CNS; ACHN renal; OVCAR-5 ovarian; U251 CNS; NCI-H23 lung; MDA-MB-231 breast; MALME-3M melanoma; HOP-92 NSCLC; SK-OV-3 ovarian; OVCAR-8 ovarian.
Holding throughout (test): growth of human tumour cells (NCI), 48 h

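Values below derive from 48-hour exposures of cells grown in 96-well plates, with endpoints linearly interpolated between the two concentrations bracketing the appropriate inhibition level. The concentration for 50% growth inhibition is given as GI50. TGI denotes the concentration required for complete inhibition of growth.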

Take `Cc1cc2c(cc1Cl)SC(N(c1ccccc1Cl)S(=O)(=O)c1ccc(Br)s1)=NS2(=O)=O`: the GI50 with SF-295 CNS was 30.7 µM; in the test with ACHN renal, 22.4 µM; in the test with OVCAR-5 ovarian, 60 µM; with U251 CNS, 16.5 µM; in the test on NCI-H23 lung, 19.9 µM; with MDA-MB-231 breast, 18.5 µM. Also, the GI50 in the test on MALME-3M melanoma was 13.8 µM; in the test with HOP-92 NSCLC, 6.62 µM; in the test with SK-OV-3 ovarian, 24.8 µM. For the same compound, the TGI is greater than 100 µM with SF-295 CNS; 84.7 µM in the test with ACHN renal; greater than 100 µM in the test with OVCAR-5 ovarian; 46.3 µM in the test on U251 CNS; 56.4 µM in the test on NCI-H23 lung; 61.8 µM in the test on MDA-MB-231 breast. The results for the TGI with MALME-3M melanoma, in the test with HOP-92 NSCLC and in the test on SK-OV-3 ovarian were 39.4 µM, 21.8 µM and greater than 100 µM, respectively.
For the compound `Cc1cc(S(=O)(=O)/N=C(\N)Nc2cccc(O)c2)c(SCc2ccccc2)cc1Cl`, the GI50 in the test on SF-295 CNS was 16.7 µM; in the test on ACHN renal, 18.2 µM; in the test with OVCAR-5 ovarian, 23.4 µM; in the test on U251 CNS, 18.9 µM; with OVCAR-8 ovarian, 24.3 µM; in the test on MDA-MB-231 breast, 16.8 µM. For the same compound, the values for the GI50 in the test with MALME-3M melanoma, in the test with HOP-92 NSCLC and with SK-OV-3 ovarian were 27.9 µM, 9.89 µM and 19.1 µM, respectively. The TGI was determined as 51.2 µM with SF-295 CNS; 39.4 µM in the test with ACHN renal; 53 µM with OVCAR-5 ovarian; 48.6 µM in the test on U251 CNS; 87.1 µM in the test with OVCAR-8 ovarian; 41.2 µM in the test on MDA-MB-231 breast. Also, the TGI is 63.9 µM in the test on MALME-3M melanoma, 36.3 µM in the test on HOP-92 NSCLC and 37.9 µM with SK-OV-3 ovarian.
For `Nc1nc(N)c2c(n1)NC(c1sc(Cl)nc1Cl)CC(c1ccccc1)=N2` (stereo not given), the GI50 is 3.06 µM in the test on SF-295 CNS; 4.56 µM in the test with ACHN renal; 10.2 µM in the test on OVCAR-5 ovarian; 4.8 µM with OVCAR-8 ovarian; 8.23 µM with NCI-H23 lung; 3.86 µM in the test with MDA-MB-231 breast. For the same compound, the GI50 is 6.33 µM with MALME-3M melanoma, 3.72 µM in the test on HOP-92 NSCLC and 3.6 µM in the test with SK-OV-3 ovarian. Besides, the TGI in the test with SF-295 CNS stood at 13.3 µM; in the test with ACHN renal, 16.8 µM; in the test with OVCAR-5 ovarian, 21.9 µM; in the test with OVCAR-8 ovarian, 22.2 µM; with NCI-H23 lung it was 23.3 µM; with MDA-MB-231 breast, 16.5 µM. The TGI in the test with MALME-3M melanoma came out at 19.1 µM; in the test on HOP-92 NSCLC, 18 µM; with SK-OV-3 ovarian, 15.3 µM.
Take `CCc1cccc(C(C)C)c1NC(=O)CC1Sc2ccccc2NC1=O` (stereo not given): the TGI in the test with SF-295 CNS, with ACHN renal, in the test on OVCAR-5 ovarian, in the test with U251 CNS, in the test with OVCAR-8 ovarian and in the test with NCI-H23 lung was greater than 100 µM throughout. The TGI was greater than 100 µM in the test with MALME-3M melanoma, 95.3 µM with HOP-92 NSCLC and greater than 100 µM with SK-OV-3 ovarian.
In the case of `COc1ccccc1-n1cnc(N)c1C(=O)c1cc(OC)c(OC)c(OC)c1`, the GI50 in the test on SF-295 CNS was 2.73 µM; in the test on ACHN renal it was 5.19 µM; with OVCAR-5 ovarian it was 62.5 µM; with U251 CNS, 3.74 µM; in the test with OVCAR-8 ovarian it was 5.85 µM; with NCI-H23 lung it was 9.5 µM. Moreover, the values for the GI50 in the test on MDA-MB-231 breast, in the test with MALME-3M melanoma and in the test on HOP-92 NSCLC were 5.93 µM, 4.33 µM and 43.8 µM, respectively. Besides, the TGI in the test with SF-295 CNS, with ACHN renal, in the test on OVCAR-5 ovarian, in the test on U251 CNS, with OVCAR-8 ovarian and with NCI-H23 lung was greater than 100 µM throughout. Also, the TGI with MDA-MB-231 breast, in the test on MALME-3M melanoma and with HOP-92 NSCLC was greater than 100 µM throughout.
`O=C(NC1CCN(Cc2ccccc2)CC1)c1cc(-c2cccnc2)nc2ccc(Cl)cc12`: the GI50 in the test on SF-295 CNS is 10.6 µM; in the test on ACHN renal, 2.36 µM; with OVCAR-5 ovarian, 10.8 µM; in the test with U251 CNS, 6.94 µM; with OVCAR-8 ovarian it was 10.4 µM; in the test with NCI-H23 lung, 18 µM. Moreover, the GI50 in the test with MDA-MB-231 breast is 2.47 µM; in the test on MALME-3M melanoma it was 7.92 µM; in the test with SK-OV-3 ovarian it was 14.1 µM. The TGI with SF-295 CNS is 26 µM; in the test with ACHN renal, 6.54 µM; in the test on OVCAR-5 ovarian, greater than 100 µM; with U251 CNS it was 22.5 µM; with OVCAR-8 ovarian it was 35.4 µM; with NCI-H23 lung, greater than 100 µM. The TGI in the test with MDA-MB-231 breast is 13.1 µM; with MALME-3M melanoma it was greater than 100 µM; with SK-OV-3 ovarian it was 42.7 µM.
Regarding `NC1=NN(c2ccccc2)C(=O)C1C(=O)C(=O)Nc1ccc(Cl)cc1` (stereo not given), the TGI in the test with SF-295 CNS, in the test with ACHN renal, in the test on OVCAR-5 ovarian, in the test on U251 CNS, with OVCAR-8 ovarian and with NCI-H23 lung was greater than 100 µM each time. Further, the TGI in the test on MALME-3M melanoma, in the test on HOP-92 NSCLC and in the test on SK-OV-3 ovarian was greater than 100 µM throughout.
Take `C/C(=N\Nc1ccccc1)c1sc(-c2nc(C)c(/C(C)=N/Nc3ccccc3)s2)nc1C`: the TGI in the test with SF-295 CNS is greater than 34.9 µM; with ACHN renal, greater than 32 µM; with OVCAR-5 ovarian, greater than 100 µM; in the test on U251 CNS, greater than 100 µM; with OVCAR-8 ovarian, greater than 100 µM; in the test on NCI-H23 lung it was greater than 100 µM. Also, the values for the TGI in the test with MALME-3M melanoma, with HOP-92 NSCLC and in the test with SK-OV-3 ovarian were 51 µM, greater than 57.6 µM and greater than 100 µM, respectively.
With `O/N=C1/CCC/C1=C\c1ccccc1`, the TGI in the test on SF-295 CNS, in the test with ACHN renal, in the test on OVCAR-5 ovarian, in the test on U251 CNS, in the test with OVCAR-8 ovarian and in the test with NCI-H23 lung was greater than 100 µM each time. Moreover, the TGI in the test with MALME-3M melanoma, in the test with HOP-92 NSCLC and in the test on SK-OV-3 ovarian was greater than 100 µM in each case.
On to `CCCCCCCCCCC(=O)CCCCCCC(=O)O`, for which the TGI with SF-295 CNS was determined as 48.7 µM; in the test on ACHN renal it was 56.6 µM; with OVCAR-5 ovarian, 51.3 µM; with U251 CNS, 86.1 µM; in the test on OVCAR-8 ovarian, 33.7 µM; in the test with NCI-H23 lung, 98.4 µM. For the same compound, the TGI was 45 µM with MALME-3M melanoma, 35.8 µM with HOP-92 NSCLC and greater than 100 µM in the test on SK-OV-3 ovarian.
